The target in the experiment is Nav 1.7 (Homo sapiens (Human), UniProt Q15858). As to the kind of experiment: Nav 1.7 IWQ in vitro assay (IonWorks Quattro population patch-clamp). In kind it is cell-based. The following applies: for IC50: 293 cells stably transfected with Nav 1.7. How it is done:
Nav 1.7 or Nav 1.5 IWQ In Vitro Assay
293 Cells stably transfected with either Nav 1.7 or Nav 1.5 were recorded in population patch-clamp mode with the IonWorks® Quattro automated electrophysiology system in accordance with the manufacturer's specifications (Molecular Devices, LLC, Sunnyvale, Calif.). Sodium channel currents were measured in response to a train of depolarizations that induced successively greater inactivation.
Cells were then left unclamped for a period of 3 to 8 minutes while a single concentration of test compound was added. Cells were then reclamped and put through the same voltage protocol. Current at the end of the 26th pulse to −20 mV was subtracted from the peak current evoked by the 26th pulse to −20 mV to correct for leak current. Percent block was calculated for each concentration in duplicate, and IC50 curves were fitted to percent block as a function of concentration.

The mark [1] stands for this setting: first part of table, read-out: Nav 1.7 IWQ IC50.
[2] abbreviates: second part of table, read-out: Nav1.7 IWQ IC50 IP.

Results on 38 molecules are retold here after US9012443B2 (Amgen Inc., priority 2011, dated 2015).

Read-outs that look alike come from different tables or passages of the source. A value given as a limit tells only on which side of the number the result lay.

Chain of Nav 1.7 (Q15858 whole entry): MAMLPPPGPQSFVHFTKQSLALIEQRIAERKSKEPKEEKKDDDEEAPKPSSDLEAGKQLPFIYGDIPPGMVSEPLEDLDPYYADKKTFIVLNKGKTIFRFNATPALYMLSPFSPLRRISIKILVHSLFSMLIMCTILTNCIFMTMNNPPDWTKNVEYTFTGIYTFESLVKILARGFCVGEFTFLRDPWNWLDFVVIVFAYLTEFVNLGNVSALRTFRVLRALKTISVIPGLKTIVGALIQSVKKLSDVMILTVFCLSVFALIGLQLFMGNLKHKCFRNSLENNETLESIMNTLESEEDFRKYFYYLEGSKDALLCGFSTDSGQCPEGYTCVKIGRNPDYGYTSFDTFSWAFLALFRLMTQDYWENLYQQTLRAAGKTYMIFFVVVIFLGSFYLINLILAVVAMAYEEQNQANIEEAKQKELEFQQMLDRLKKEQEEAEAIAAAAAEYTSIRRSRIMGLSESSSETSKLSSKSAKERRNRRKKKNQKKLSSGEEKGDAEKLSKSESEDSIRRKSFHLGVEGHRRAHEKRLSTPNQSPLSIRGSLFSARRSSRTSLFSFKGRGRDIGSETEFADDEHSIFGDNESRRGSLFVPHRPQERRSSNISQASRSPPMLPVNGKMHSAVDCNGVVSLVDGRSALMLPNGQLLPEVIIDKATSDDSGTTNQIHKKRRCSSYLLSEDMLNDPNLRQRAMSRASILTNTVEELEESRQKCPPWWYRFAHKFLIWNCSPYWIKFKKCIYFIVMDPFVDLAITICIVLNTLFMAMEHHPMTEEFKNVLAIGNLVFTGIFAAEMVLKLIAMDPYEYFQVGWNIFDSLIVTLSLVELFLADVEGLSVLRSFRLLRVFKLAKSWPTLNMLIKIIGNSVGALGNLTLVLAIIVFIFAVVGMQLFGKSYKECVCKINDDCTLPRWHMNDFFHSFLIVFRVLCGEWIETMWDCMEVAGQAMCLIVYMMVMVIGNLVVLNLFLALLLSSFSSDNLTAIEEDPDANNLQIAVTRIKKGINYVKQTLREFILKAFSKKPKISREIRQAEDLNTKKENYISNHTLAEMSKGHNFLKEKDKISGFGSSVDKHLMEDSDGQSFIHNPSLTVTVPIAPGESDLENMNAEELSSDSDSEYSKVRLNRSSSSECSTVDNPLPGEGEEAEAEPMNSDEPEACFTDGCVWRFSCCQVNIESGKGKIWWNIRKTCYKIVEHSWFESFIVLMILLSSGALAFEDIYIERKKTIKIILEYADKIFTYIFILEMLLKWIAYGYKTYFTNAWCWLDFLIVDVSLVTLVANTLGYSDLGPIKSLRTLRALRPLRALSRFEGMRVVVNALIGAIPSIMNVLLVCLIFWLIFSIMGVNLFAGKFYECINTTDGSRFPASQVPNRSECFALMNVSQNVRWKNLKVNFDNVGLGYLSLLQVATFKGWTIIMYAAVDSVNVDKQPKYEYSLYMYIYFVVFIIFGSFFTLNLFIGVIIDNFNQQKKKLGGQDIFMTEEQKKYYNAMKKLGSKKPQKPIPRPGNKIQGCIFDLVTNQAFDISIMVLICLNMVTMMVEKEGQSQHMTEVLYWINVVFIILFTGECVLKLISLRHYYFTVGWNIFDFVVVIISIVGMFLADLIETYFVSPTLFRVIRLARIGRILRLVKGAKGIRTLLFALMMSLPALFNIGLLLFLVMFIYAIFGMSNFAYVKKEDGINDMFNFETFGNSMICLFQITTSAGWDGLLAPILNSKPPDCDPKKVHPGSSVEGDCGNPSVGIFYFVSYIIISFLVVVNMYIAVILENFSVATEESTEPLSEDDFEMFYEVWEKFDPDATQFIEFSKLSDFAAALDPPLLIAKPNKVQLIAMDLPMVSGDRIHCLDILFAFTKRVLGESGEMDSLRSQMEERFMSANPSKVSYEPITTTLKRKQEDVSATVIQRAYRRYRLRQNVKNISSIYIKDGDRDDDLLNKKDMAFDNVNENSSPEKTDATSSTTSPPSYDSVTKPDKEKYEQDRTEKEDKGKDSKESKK

In general, IC50 refers to the midpoint of a concentration-inhibition curve. As for `CN1CC=C(c2cc(C(F)(F)F)ccc2-c2nccc3cc(S(=O)(=O)Nc4nccs4)ccc23)CC1` [Example 72, 1-(2-(1-METHYL-1,2,3,6-TETRAHYDROPYRIDIN-4-YL)-4-(TRIFLUOROMETHYL)PHENYL)-N-(THIAZOL-2-YL)ISOQUINOLINE-6-SULFONAMIDE], the IC50 under setting [1] turned out to be 0.06 µM.

By inhibition is commonly meant the share of the control response that was lost under treatment. Take `COc1cc(Cl)ccc1-c1cccc2cc(S(=O)(=O)Nc3cc(C)on3)ccc12` [Example 44]: the inhibition at […] (read-out: Nav 1.7 IWQ percent inhibition at […], read-out: Nav 1.7 IWQ percent inhibition at 4.9 μM) turned out to be 22.1%.

Turning to `O=S(=O)(Nc1ncns1)c1ccc2c(N3CCCC3c3ccncc3)ncnc2c1` (centres unmarked) [Example 539, 4-(2-(PYRIDIN-4-YL)PYRROLIDIN-1-YL)-N-(1,2,4-THIADIAZOL-5-YL)QUINAZOLINE-7-SULFONAMIDE], the “Nav1.7 Single Point Data IWQ (at […]) (%)” value was found to be 20.3%.

As for `Cn1ccc2cccc(-c3nccc4cc(S(=O)(=O)Nc5ccncn5)ccc34)c21` [Example 164, 1-(1-METHYL-1H-INDOL-7-YL)-N-(PYRIMIDIN-4-YL)ISOQUINOLINE-6-SULFONAMIDE], the half-maximal inhibitory concentration (IC50) under setting [2] stood at 6.61 µM.

For `CN1CC(n2nccc2-c2cc(C(F)(F)F)ccc2-c2cccc3cc(S(=O)(=O)Nc4nccs4)ccc23)C1` [Example 82], the IC50 under setting [1] worked out at 0.07 µM.

Regarding `Cc1cccc(CCCOc2nccc3cc(S(=O)(=O)Nc4ccncn4)ccc23)n1` [Example 300, 1-(3-(6-METHYLPYRIDIN-2-YL)PROPOXY)-N-(PYRIMIDIN-4-YL)ISOQUINOLINE-6-SULFONAMIDE], the “Nav1.7 Single Point Data IWQ (at […]) (%)” value came out at 25%. The IC50 under setting [2] was more than 10 µM.

In the case of `O=S(=O)(Nc1ncns1)c1ccc2c(-c3ccncc3)cccc2c1` [Example 7], the IC50 under setting [1] amounted to 7.76 µM.

On to `O=S(=O)(Nc1ncns1)c1ccc2c(N3CCCC3c3ccccc3)cccc2c1` (centres unmarked) [Example 83], for which the half-inhibitory concentration (IC50) under setting [1] is 0.01 µM.

As for `Cc1cc(S(=O)(=O)N(C)C)ccc1-c1nccc2cc(S(=O)(=O)Nc3ccncn3)ccc12` [Example 433], the “Nav1.7 Single Point Data IWQ (at […]) (%)” value amounted to 21.2%.

Turning to `Cc1cnc(OCc2ccccc2)c(-c2nccc3cc(S(=O)(=O)Nc4nccs4)ccc23)c1` [Example 380, 1-(2-(BENZYLOXY)-5-METHYLPYRIDIN-3-YL)-N-(THIAZOL-2-YL)ISOQUINOLINE-6-SULFONAMIDE], the “Nav1.7 Single Point Data IWQ (at […]) (%)” value was found to be 40%.

In the case of `COc1cc(C(F)(F)F)ccc1-c1nccc2cc(S(=O)(=O)Nc3ccncn3)cnc12` [Example 292, 8-(2-METHOXY-4-(TRIFLUOROMETHYL)PHENYL)-N-(PYRIMIDIN-4-YL)-1,7-NAPHTHYRIDINE-3-SULFONAMIDE], the half-maximal inhibitory concentration (IC50) under setting [2] turned out to be 3.94 µM.

`COc1cc(-c2cnn(C)c2)ccc1-c1nccc2cc(S(=O)(=O)Nc3ccncn3)ccc12` [Example 454, 1-(2-METHOXY-4-(1-METHYL-1H-PYRAZOL-4-YL)PHENYL)-N-(PYRIMIDIN-4-YL)ISOQUINOLINE-6-SULFONAMIDE]: the “Nav1.7 Single Point Data IWQ (at […]) (%)” value is less than 20%.

Consider `O=S(=O)(Nc1nccs1)c1ccc2c(-c3ccc(C(F)(F)F)cc3-c3ccnn3C3CNC3)cccc2c1` [Example 81], for which the half-maximal inhibitory concentration (IC50) under setting [1] is 0.04 µM.

For the molecule `Cn1ncnc1COc1nccc2cc(S(=O)(=O)Nc3ccncn3)ccc12` [Example 295, 1-((1-METHYL-1H-1,2,4-TRIAZOL-5-YL)METHOXY)-N-(PYRIMIDIN-4-YL)ISOQUINOLINE-6-SULFONAMIDE], the “Nav1.7 Single Point Data IWQ (at […]) (%)” value amounted to 36%. The IC50 under setting [2] is more than 10 µM.

Turning to `O=S(=O)(Nc1ncns1)c1ccc2c(-c3ccc(Cl)cc3)nccc2c1` [Example 64, 1-(4-CHLOROPHENYL)-N-(1,2,4-THIADIAZOL-5-YL)ISOQUINOLINE-6-SULFONAMIDE], the IC50 under setting [1] is 0.77 µM.

Turning to `Cc1nsc(NS(=O)(=O)c2ccc3c(-c4ccc(Cl)cc4C)nccc3c2)n1` [Example 356], the “Nav1.7 Single Point Data IWQ (at […]) (%)” value came out at 27%.

Consider `O=C1CCCN1c1cccc2cc(S(=O)(=O)Nc3ncns3)ccc12` [Example 93], for which, under setting [2], the concentration for half-maximal inhibition (IC50) is 7.97 µM.

Take `O=S(=O)(Nc1ncns1)c1ccc2c(N3CCOCC3)cccc2c1` [Example 13]: the IC50 under setting [1] came to 3.56 µM.

Regarding `COc1nccc(NS(=O)(=O)c2ccc3c(-c4ccc(C(F)(F)F)cc4OC)nccc3c2)n1` [Example 313, 1-(2-METHOXY-4-(TRIFLUOROMETHYL)PHENYL)-N-(2-METHOXYPYRIMIDIN-4-YL)ISOQUINOLINE-6-SULFONAMIDE], the “Nav1.7 Single Point Data IWQ (at […]) (%)” value is reported as 39%. Besides, the IC50 under setting [2] is more than 10 µM.

`COc1c(-c2nccc3cc(S(=O)(=O)Nc4ccncn4)ccc23)cccc1C(F)(F)F` [Example 152, 1-(2-METHOXY-3-(TRIFLUOROMETHYL)PHENYL)-N-(PYRIMIDIN-4-YL)ISOQUINOLINE-6-SULFONAMIDE]: under setting [2], the IC50 is 6.81 µM.

On to `O=S(=O)(Nc1ccncn1)c1ccc2c(OCCn3ccnn3)nccc2c1` [Example 296, 1-(2-(1H-1,2,3-TRIAZOL-1-YL)ETHOXY)-N-(PYRIMIDIN-4-YL)ISOQUINOLINE-6-SULFONAMIDE], for which the “Nav1.7 Single Point Data IWQ (at […]) (%)” value was 23%. Moreover, under setting [2], the IC50 was more than 10 µM.

For `Cn1ncc2cccc(-c3nccc4cc(S(=O)(=O)Nc5ccncn5)ccc34)c21` [Example 306, 1-(1-METHYL-1H-INDAZOL-7-YL)-N-(PYRIMIDIN-4-YL)ISOQUINOLINE-6-SULFONAMIDE], the “Nav1.7 Single Point Data IWQ (at […]) (%)” value is given as 35%. The IC50 under setting [2] is more than 10 µM.

As to `O=S(=O)(Nc1ncns1)c1ccc2c(-c3ccc(C(F)(F)F)cc3O)nccc2c1` [Example 58, 1-(2-HYDROXY-4-(TRIFLUOROMETHYL)PHENYL)-N-(1,2,4-THIADIAZOL-5-YL)ISOQUINOLINE-6-SULFONAMIDE], under setting [1], the IC50 worked out at 0.6 µM.

Take `Cn1nc(C(F)(F)F)cc1-c1nccc2cc(S(=O)(=O)Nc3ccncn3)ccc12` [Example 312, 1-(1-METHYL-3-(TRIFLUOROMETHYL)-1H-PYRAZOL-5-YL)-N-(PYRIMIDIN-4-YL)ISOQUINOLINE-6-SULFONAMIDE]: the “Nav1.7 Single Point Data IWQ (at […]) (%)” value stood at 47%. Also, under setting [2], the IC50 is more than 10 µM.

For `COc1cc(C(F)F)c(F)cc1-c1ncnc2cc(S(=O)(=O)NC3=NCCS3)ccc12` [Example 519, 4-(4-(DIFLUOROMETHYL)-5-FLUORO-2-METHOXYPHENYL)-N-(4,5-DIHYDROTHIAZOL-2-YL)QUINAZOLINE-7-SULFONAMIDE], the “Nav1.7 Single Point Data IWQ (at […]) (%)” value is given as less than 20%.

Take `O=S(=O)(Nc1ccncn1)c1ccc2c(-c3ccc(C(F)(F)F)cc3-c3ccncc3)cccc2c1` [Example 75]: under setting [1], the IC50 stood at 0.1 µM.

For the molecule `CC1CN(c2cccc3cc(S(=O)(=O)Nc4ncns4)ccc23)CCO1` (centres unmarked) [Example 16], the 50% inhibitory concentration (IC50) under setting [1] turned out to be 2.37 µM.

In the case of `COc1cc(-c2ncc(Cl)s2)ccc1-c1nccc2cc(S(=O)(=O)Nc3ccncn3)ccc12` [Example 458, 1-(4-(5-CHLOROTHIAZOL-2-YL)-2-METHOXYPHENYL)-N-(PYRIMIDIN-4-YL)ISOQUINOLINE-6-SULFONAMIDE], the “Nav1.7 Single Point Data IWQ (at […]) (%)” value turned out to be 24.7%.

On to `O=S(=O)(Nc1ccncn1)c1ccc2c(C3CCCN3C3CCOCC3)nccc2c1` (centres unmarked) [Example 316, N-(PYRIMIDIN-4-YL)-1-(1-(TETRAHYDRO-2H-PYRAN-4-YL)PYRROLIDIN-2-YL)ISOQUINOLINE-6-SULFONAMIDE 2,2,2-TRIFLUOROACETATE], for which the “Nav1.7 Single Point Data IWQ (at […]) (%)” value is given as 26%. For the same molecule, the 50% inhibitory concentration (IC50) under setting [2] is more than 10 µM.

With `CN1CC=C(c2cc(C(F)(F)F)ccc2-c2cccc3cc(S(=O)(=O)Nc4ccncn4)ccc23)CC1` [Example 76], the concentration for half-maximal inhibition (IC50) under setting [1] was 0.07 µM.

Turning to `COc1ncccc1-c1nccc2cc(S(=O)(=O)Nc3ccncn3)ccc12` [Example 144, 1-(2-METHOXYPYRIDIN-3-YL)-N-(PYRIMIDIN-4-YL)ISOQUINOLINE-6-SULFONAMIDE], the IC50 under setting [2] stood at 6.73 µM.

On to `O=S(=O)(Nc1ccncn1)c1ccc2c(-c3cccc4cc[nH]c34)nccc2c1` [Example 434, 1-(1H-INDOL-7-YL)-N-(PYRIMIDIN-4-YL)ISOQUINOLINE-6-SULFONAMIDE], for which the “Nav1.7 Single Point Data IWQ (at […]) (%)” value was 20.0%.

In the case of `O=S(=O)(Nc1ccncn1)c1ccc2c(-c3ccc(C(F)(F)F)cc3C3=CCNCC3)nccc2c1` [Example 69, N-(PYRIMIDIN-4-YL)-1-(2-(1,2,3,6-TETRAHYDROPYRIDIN-4-YL)-4-(TRIFLUOROMETHYL)PHENYL)ISOQUINOLINE-6-SULFONAMIDE 2,2,2-TRIFLUOROACETATE], the IC50 under setting [1] was determined as 0.06 µM.

`CC1CN(c2cccc(F)c2)CCN1c1nccc2cc(S(=O)(=O)Nc3ccncn3)ccc12` (centres unmarked) [Example 403, 1-(4-(3-FLUOROPHENYL)-2-METHYLPIPERAZIN-1-YL)-N-(PYRIMIDIN-4-YL)ISOQUINOLINE-6-SULFONAMIDE]: the “Nav1.7 Single Point Data IWQ (at […]) (%)” value was 33.5%.

As for `COc1ccc(-c2nccc3cc(S(=O)(=O)Nc4ncns4)ccc23)c(OC)c1` [Example 59, 1-(2,4-DIMETHOXYPHENYL)-N-(1,2,4-THIADIAZOL-5-YL)ISOQUINOLINE-6-SULFONAMIDE], the IC50 under setting [1] turned out to be 0.06 µM.

Take `COc1cc(C(F)(F)F)ccc1-c1nccc2cc(S(=O)(=O)NC(C)=O)ccc12` [Example 314, N-((1-(2-METHOXY-4-(TRIFLUOROMETHYL)PHENYL)ISOQUINOLIN-6-YL)SULFONYL)ACETAMIDE]: the “Nav1.7 Single Point Data IWQ (at […]) (%)” value amounted to 39%. In addition, the half-inhibitory concentration (IC50) under setting [2] was more than 10 µM.

Regarding `Cc1noc(C)c1-c1nccc2cc(S(=O)(=O)Nc3ccncn3)ccc12` [Example 311, 1-(3,5-DIMETHYLISOXAZOL-4-YL)-N-(PYRIMIDIN-4-YL)ISOQUINOLINE-6-SULFONAMIDE], the “Nav1.7 Single Point Data IWQ (at […]) (%)” value was determined as 29%.

Take `Cn1ccnc1-c1nccc2cc(S(=O)(=O)Nc3nccs3)ccc12` [Example 315, 1-(1-METHYL-1H-IMIDAZOL-2-YL)-N-(THIAZOL-2-YL)ISOQUINOLINE-6-SULFONAMIDE 2,2,2-TRIFLUOROACETATE]: the “Nav1.7 Single Point Data IWQ (at […]) (%)” value was found to be 37%. For the same molecule, under setting [2], the concentration for half-maximal inhibition (IC50) is more than 10 µM.
